According to the supplement of paper PMC11451515:

System: P12-Ichikawa
Experiment: cell viability relative to DMSO control; higher = less cytotoxic
Settings: 48 h
Procedure, shortened: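 Three leukemia lines were tested: NOMO1 and SEM at 500 cells/well and P12-Ichikawa at 1000 cells/well. Each was adapted for at least four passages in each medium and seeded in 5 μl in 1536-well plates, and library compounds in DMSO were pin-dosed from 47 μM to 0.79 nM in 11 threefold steps. After 48 h at 37°C, CellTiter-Glo One luminescence was read. Viability is a percentage relative to DMSO wells on each plate, with cell-free wells as background.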

[1] = HPLM + 10% dialyzed FBS, 0.000781 µM
[2] = HPLM + 10% dialyzed FBS, 0.00234 µM
[3] = HPLM + 10% dialyzed FBS, 0.00702 µM
[4] = HPLM + 10% dialyzed FBS, 0.0211 µM
[5] = HPLM + 10% dialyzed FBS, 0.0632 µM
[6] = HPLM + 10% dialyzed FBS, 0.19 µM
[7] = HPLM + 10% dialyzed FBS, 0.569 µM
[8] = HPLM + 10% dialyzed FBS, 1.71 µM
[9] = HPLM + 10% dialyzed FBS, 5.12 µM
[10] = HPLM + 10% dialyzed FBS, 15.4 µM
[11] = HPLM + 10% dialyzed FBS, 46.1 µM
[12] = RPMI 5 mM glucose + 10% FBS, 0.000781 µM
[13] = RPMI 5 mM glucose + 10% FBS, 0.00234 µM
[14] = RPMI 5 mM glucose + 10% FBS, 0.00702 µM
[15] = RPMI 5 mM glucose + 10% FBS, 0.0211 µM
[16] = RPMI 5 mM glucose + 10% FBS, 0.0632 µM
[17] = RPMI 5 mM glucose + 10% FBS, 0.19 µM
[18] = RPMI 5 mM glucose + 10% FBS, 0.569 µM
[19] = RPMI 5 mM glucose + 10% FBS, 1.71 µM
[20] = RPMI 5 mM glucose + 10% FBS, 5.12 µM
[21] = RPMI 5 mM glucose + 10% FBS, 15.4 µM
[22] = RPMI 5 mM glucose + 10% FBS, 46.1 µM
[23] = RPMI 5 mM glucose + 10% dialyzed FBS, 0.000781 µM
[24] = RPMI 5 mM glucose + 10% dialyzed FBS, 0.00234 µM
[25] = RPMI 5 mM glucose + 10% dialyzed FBS, 0.00702 µM
[26] = RPMI 5 mM glucose + 10% dialyzed FBS, 0.0211 µM
[27] = RPMI 5 mM glucose + 10% dialyzed FBS, 0.0632 µM
[28] = RPMI 5 mM glucose + 10% dialyzed FBS, 0.19 µM
[29] = RPMI 5 mM glucose + 10% dialyzed FBS, 0.569 µM
[30] = RPMI 5 mM glucose + 10% dialyzed FBS, 1.71 µM
[31] = RPMI 5 mM glucose + 10% dialyzed FBS, 5.12 µM
[32] = RPMI 5 mM glucose + 10% dialyzed FBS, 15.4 µM
[33] = RPMI 5 mM glucose + 10% dialyzed FBS, 46.1 µM

Row | Compound | cell viability [1] | cell viability [2] | cell viability [3] | cell viability [4] | cell viability [5] | cell viability [6] | cell viability [7] | cell viability [8] | cell viability [9] | cell viability [10] | cell viability [11] | cell viability [12] | cell viability [13] | cell viability [14] | cell viability [15] | cell viability [16] | cell viability [17] | cell viability [18] | cell viability [19] | cell viability [20] | cell viability [21] | cell viability [22] | cell viability [23] | cell viability [24] | cell viability [25] | cell viability [26] | cell viability [27] | cell viability [28] | cell viability [29] | cell viability [30] | cell viability [31] | cell viability [32] | cell viability [33]
1 | CC(C)C1CCC(C(=O)N[C@H](Cc2ccccc2)C(=O)O)CC1 (some centres not stated) | 100% | 95.9% | 98.9% | 103% | 95% | 99.5% | 92.5% | 88.2% | 93.6% | 87.4% | 86.9% | 94.3% | 97.8% | 91.9% | 96.9% | 98.2% | 93.7% | 84.4% | 88.3% | 86.3% | 83.5% | 87.1% | 91.1% | 95.3% | 88.2% | 92.3% | 90.9% | 89.7% | 77.7% | 86.9% | 89.7% | 79.9% | 84.6%
2 | CO[C@@H](C(=O)N1Cc2[nH]nc(NC(=O)c3ccc(N4CCN(C)CC4)cc3)c2C1)c1ccccc1 | 89.1% | 93.6% | 93% | 95.9% | 80% | 35.4% | 15% | 20.3% | 23.2% | 25% | 50.8% | 90% | 87.3% | 84.9% | 89% | 75.9% | 30.3% | 19.9% | 28.9% | 28.3% | 26.1% | 42.3% | 87.1% | 95.8% | 95.9% | 95.5% | 82.8% | 34.5% | 28.4% | 37.9% | 39.4% | 42.8% | 54.8%
3 | O=C(O)c1cc(O)c2c(c1)C(=O)c1cccc(O)c1C2=O | 113% | 117% | 123% | 117% | 107% | 117% | 112% | 110% | 107% | 106% | 99.9% | 110% | 120% | 113% | 119% | 119% | 113% | 109% | 120% | 98% | 113% | 102% | 118% | 119% | 113% | 114% | 112% | 112% | 110% | 108% | 99.1% | 108% | 99.7%
4 | CCC(CCCC)COC(=O)C(\C#N)=C(\c1ccccc1)c2ccccc2 (configuration not stated) | 95.6% | 100% | 102% | 99.3% | 106% | 108% | 112% | 107% | 113% | 107% | 99.3% | 89.8% | 95.7% | 95.2% | 96.3% | 110% | 104% | 106% | 99.2% | 95.2% | 102% | 94.5% | 87.1% | 84.2% | 97.6% | 98.5% | 98.8% | 97.2% | 101% | 99.5% | 97.3% | 99.1% | 95.9%
5 | CN(C)c1nc(Cc2ccc(NC(=O)c3ccc(C(F)(F)F)cc3)cc2)nc(N(C)C)c1CC(=O)O | 106% | 100% | 107% | 104% | 105% | 103% | 99.5% | 102% | 103% | 98.2% | 90.3% | 106% | 109% | 99.5% | 105% | 109% | 103% | 103% | 108% | 100% | 103% | 98.5% | 95.7% | 96.7% | 99.6% | 105% | 94.7% | 96.9% | 99.3% | 96.8% | 95.1% | 93.8% | 85.2%
6 | Cc1ccc([C@@H]2O[C@H](CO)[C@@H](O)[C@H](O)[C@H]2O)cc1Cc1ccc(-c2ccc(F)cc2)s1 | 119% | 112% | 119% | 116% | 126% | 127% | 126% | 127% | 127% | 125% | 90.3% | 118% | 121% | 135% | 130% | 129% | 132% | 128% | 126% | 131% | 125% | 77.7% | 114% | 117% | 118% | 121% | 132% | 132% | 134% | 131% | 118% | 120% | 69.9%
7 | CO[C@H]1CCC(O[C@H]2C[C@H]([C@]3(C)CC[C@]4(C[C@H](O)[C@@H](C)[C@@H]([C@@H](C)/C=C(\C)C(=O)[C@H](C)C[C@H](C)C(=O)[O-])O4)O3)O[C@]3(O[C@@H]([C@H]4O[C@@](O)(CO)[C@H](C)C[C@@H]4C)C[C@@H]3C)[C@@H]2C)O[C@@H]1C (some centres not stated) | 120% | 124% | 119% | 118% | 111% | 106% | 87.3% | 80.2% | 48.8% | 35.7% | 21.5% | 124% | 113% | 106% | 113% | 111% | 103% | 99.7% | 73.1% | 44.2% | 28.9% | 22.7% | 118% | 120% | 109% | 119% | 120% | 119% | 108% | 88.8% | 39.7% | 25.3% | 27.1%
8 | C[C@H](CCC(=O)O)[C@H]1CC[C@H]2[C@@H]3[C@H](O)C[C@@H]4C[C@H](O)CC[C@]4(C)[C@H]3CC[C@]12C | 94.6% | 87.9% | 93.9% | 92.4% | 98.8% | 97.5% | 93.3% | 92.8% | 92.2% | 93.9% | 94.2% | 91% | 88.4% | 89.2% | 91.7% | 90.5% | 90.1% | 90.7% | 90% | 88.1% | 89.8% | 95.6% | 81.1% | 82.7% | 93.3% | 93% | 89.6% | 85.3% | 88.2% | 87.2% | 86.5% | 85.9% | 91.1%
9 | Cc1cc(Nc2cc(N3CCN(C)CC3)nc(/C=C/c3ccccc3)n2)n[nH]1 | 105% | 111% | 115% | 120% | 118% | 122% | 116% | 12.1% | 5.08% | 4.47% | 5.23% | 113% | 108% | 113% | 117% | 121% | 125% | 119% | 41.5% | 8.43% | 4.4% | 4.88% | 107% | 114% | 112% | 112% | 121% | 130% | 126% | 37.4% | 11.6% | 5.07% | 5.54%
10 | CC1(C)SCCN([S+](=O)([O-])c2ccc(OCC#CCO)cc2)[C@H]1C(=O)NO | 103% | 108% | 107% | 98.9% | 104% | 103% | 98.5% | 90.9% | 91.2% | 93.4% | 95.1% | 106% | 95.5% | 101% | 98.7% | 101% | 95.8% | 104% | 87.5% | 87.9% | 80.6% | 89.2% | 97% | 97.7% | 101% | 103% | 89.8% | 88.3% | 88.1% | 91.9% | 86.9% | 85.4% | 83.6%
11 | CC/C=C\C[C@H]1C(=O)CC[C@@H]1CC(=O)OC | 121% | 119% | 126% | 125% | 126% | 126% | 117% | 115% | 115% | 114% | 108% | – | – | – | – | – | – | – | – | – | – | – | 122% | 129% | 124% | 121% | 131% | 125% | 125% | 126% | 125% | 116% | 109%
12 | CCc1ccc(OCc2ccccc2C(=O)Nc2ccc3nc(C)cc(N)c3c2)cc1 | 95.7% | 107% | 110% | 114% | 118% | 116% | 113% | 121% | 110% | 6.84% | 4.54% | 88.2% | 107% | 112% | 113% | 108% | 114% | 118% | 123% | 108% | 41.3% | 4.15% | 89.3% | 103% | 108% | 111% | 104% | 110% | 112% | 121% | 103% | 47.5% | 4.84%
13 | Clc2cccc(Cl)c2\N=C1/NCCN1 | 109% | 115% | 71% | 123% | 116% | 123% | 120% | 120% | 116% | 122% | 121% | 109% | 120% | 73.8% | 121% | 127% | 130% | 137% | 126% | 135% | 126% | 123% | 95.8% | 115% | 80.2% | 113% | 115% | 121% | 120% | 120% | 112% | 124% | 124%
14 | CCOC(=O)N1CCN(/[N+]([O-])=N/Oc2cc(O/N=[N+](\[O-])N3CCN(C(=O)OCC)CC3)c([N+](=O)[O-])cc2[N+](=O)[O-])CC1 | 122% | 123% | 125% | 123% | 131% | 140% | 131% | 140% | 136% | 134% | 135% | – | – | – | – | – | – | – | – | – | – | – | – | – | – | – | – | – | – | – | – | – | –
15 | CCn1nnc2c(N3CCOCC3)nc(-c3ccc(NC(=O)Nc4ccc(C(=O)N5CCN(C)CC5)cc4)cc3)nc21 | 103% | 109% | 99.8% | 92.6% | 91.6% | 76.3% | 101% | 71% | 76% | 70.2% | 68.9% | 97.5% | 98.4% | 99.4% | 83.6% | 72.3% | 55.3% | 94.3% | 55.2% | 54.9% | 56.9% | 59.4% | 93.7% | 106% | 88.5% | 70.6% | 69.9% | 59.6% | 103% | 56.9% | 58.8% | 54.4% | 50.1%
